# Test system: pond water supporting algal and protozoan life, inoculated with bacterium escherichia coli
# Experiment: Plate count test on pond water sample inoculated with escherichia coli
# Assay type: cell-based
# Details: for population (plate count): after five days, untreated sample 100 organisms per milliliter
# Method: A sample of pond water was obtained. […] The pond water was inoculated with a large population of bacterium escherichia coli. A plate count test was run on the pond water sample to determine the population. […] Dilution was performed with pond water to yield a population that would register on a plate count test. One liter of the sample was removed and left untreated.
# A second one liter portion was taken from the pond water sample. A composition of about 2% active zinc sulfate was mixed with the water sample to yield active zinc at about 0.1 ppm.
# A third one liter portion was taken from the pond water sample. A composition of about 2% active zinc sulfate was mixed with the water sample to yield active zinc at about 10.0 ppm.
# A fourth one liter portion was taken from the pond water sample. A zinc chelated product was prepared containing about 2% active zinc sulfate which was chelated on a 1:1 molar ratio with 1-hydroxyethane 1,1-diphosphonic acid (HEDPA). The chelated zinc product was added to the sample to yield chelated zinc at about 0.1 ppm.
# A fifth one liter portion was taken from the pond water sample. A zinc chelated product was prepared containing about 2% active zinc sulfate which was chelated on a 1:1 molar ratio with HEDPA. The chelated zinc product was added to the sample to yield chelated zinc at about 10.0 ppm.
smiles,measurement,setting,value
"O=S(=O)([O-])[O-].[Zn+2] [active zinc, zinc sulfate]",population (plate count),about 0.1 ppm in one liter pond water sample,1 organism per milliliter
same,population (plate count),about 10.0 ppm in one liter pond water sample,6 organisms per milliliter
same,treatment of biological fouling (in words),"about 10.0 ppm, compared to the untreated sample",effective treatment
